The test system of this data set is human SMAD7 mRNA. Kind of data set: Antisense inhibition of human SMAD7 mRNA expression in Hep3B cells by 3-10-3 cEt gapmers, 10,000 nM, electroporation (Example 2). Type of data set: cell-based. Conditions: approximately 24 hours. Summed up: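 Hep3B cells (20,000 per well) were electroporated with 10,000 nM 16-mer 3-10-3 cEt gapmer (phosphorothioate, 5-methylcytosine). After about 24 h, SMAD7 mRNA was quantified by qRT-PCR with primer probe set RTS5062, normalised to RIBOGREEN total RNA, and expressed as percent inhibition versus untreated cells.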

The mark [1] stands for this setting: Hep3B cells, electroporation with 10,000 nM antisense oligonucleotide, SMAD7 mRNA by RT-PCR (RTS5062), relative to untreated control cells.
Setting [2] is: SMAD7 mRNA, Hep3B cells, electroporation with 10,000 nM antisense oligonucleotide, primer probe set RTS5062, relative to untreated control cells.
The mark [3] stands for this setting: Hep3B cells, electroporation with 10,000 nM antisense oligonucleotide, RTS5062, percent inhibition of SMAD7 mRNA relative to untreated control cells.
Setting [4] is: Hep3B cells, electroporation, 10,000 nM antisense oligonucleotide, RTS5062, relative to untreated control cells.
The mark [5] stands for this setting: Hep3B cells, electroporation with 10,000 nM antisense oligonucleotide, primer probe set RTS5062, relative to untreated control cells.
Where [6] appears, read: SMAD7 mRNA, Hep3B cells, 10,000 nM antisense oligonucleotide, electroporation, primer probe set RTS5062, relative to untreated control cells.

Strand notation (5' to 3'): a small letter for the sugar, then the base; units joined by * are phosphorothioate-linked, units joined directly phosphodiester-linked; [ ] holds rarer units or linkages, { } end groups; capitals alone tell only the bases. k = constrained ethyl (cEt); [5mC] = 5-methylcytosine; d = 2'-deoxy (DNA)

Usually % Inhibition stands for the drop in the measured response relative to a control, in per cent. Regarding “800021 (kG*kG*k[5mC]*d[5mC]*dT*d[5mC]*dT*d[5mC]*dG*d[5mC]*dT*dG*dA*kT*kA*kG; antisense) [compound 800021]”, the “% Inhibition” value under setting [1] is given as 0%.
Take “829880 (antisense kT*k[5mC]*k[5mC]*dT*dG*dG*dA*dG*dT*d[5mC]*d[5mC]*dG*dG*kG*kT*kT) [compound 829880]”: the “% Inhibition” value under setting [2] was found to be 32%.
For “799546 (kT*kA*k[5mC]*dT*dG*dT*dT*dG*dG*d[5mC]*dA*dG*dT*kG*k[5mC]*kT; antisense) [compound 799546]”, the “% Inhibition” value under setting [3] was 48%.
As for “799796 (k[5mC]*kA*kT*dT*dA*dG*dA*dT*dA*d[5mC]*dT*dG*dT*k[5mC]*kT*kT; antisense) [compound 799796]”, the “% inhibition of SMAD7 mRNA expression” value under setting [4] is listed as 43%.
As for “799585 (kA*kG*kA*d[5mC]*dA*dA*dG*dA*dT*dG*dT*dT*dA*kT*k[5mC]*kA; antisense) [compound 799585]”, under setting [3], the “% Inhibition” value came to 34%.
As for “799754 (antisense kG*kG*k[5mC]*dT*dA*dA*dG*dT*dG*d[5mC]*d[5mC]*dA*dG*kG*kT*kG) [compound 799754]”, the “% inhibition of SMAD7 mRNA expression” value under setting [4] stood at 0%.
With “799016 (k[5mC]*kA*kA*dA*d[5mC]*d[5mC]*dT*d[5mC]*dT*d[5mC]*dT*dG*d[5mC]*kT*kG*kG; antisense) [compound 799016]”, the “% Inhibition” value under setting [5] came out at 30%.
“830110 (k[5mC]*k[5mC]*kA*dT*dT*d[5mC]*dA*dT*dT*dA*dA*dG*d[5mC]*k[5mC]*k[5mC]*kG; antisense) [compound 830110]”: under setting [1], the “% Inhibition” value is 36%.
As to “830129 (antisense k[5mC]*kA*k[5mC]*d[5mC]*dT*d[5mC]*d[5mC]*dG*dA*dG*dG*d[5mC]*dA*k[5mC]*k[5mC]*kA) [compound 830129]”, the “% Inhibition” value under setting [1] was 41%.
For the substance “799688 (antisense k[5mC]*kA*k[5mC]*d[5mC]*dA*d[5mC]*d[5mC]*d[5mC]*dA*dA*dA*dG*d[5mC]*k[5mC]*kT*kG) [compound 799688]”, the “% Inhibition” value under setting [3] came to 50%.
“790620 (kT*kA*kA*dT*dA*dA*dA*dT*d[5mC]*dT*d[5mC]*dA*dG*kG*kT*kT; antisense) [compound 790620]”: the “% Inhibition” value under setting [5] is 30%.
On to “799238 (kA*kA*kT*dG*dG*dA*dA*d[5mC]*dA*dT*dA*dA*dA*k[5mC]*kT*k[5mC]; antisense) [compound 799238]”, for which the “% Inhibition” value under setting [5] was determined as 17%.
“829941 (k[5mC]*kA*kG*dT*d[5mC]*dA*dG*dT*dT*dG*dG*dT*dT*kT*kG*kA; antisense) [compound 829941]”: the “% inhibition of SMAD7 mRNA expression” value (Hep3B cells, electroporation, 10,000 nM, 3-10-3 cEt gapmers targeting SEQ ID NO: 3 and 4) came to 8%.
In the case of “799638 (kA*kG*kT*d[5mC]*dA*dG*dG*d[5mC]*dA*d[5mC]*dA*dG*dA*k[5mC]*kT*kG; antisense) [compound 799638]”, the “% inhibition of SMAD7 mRNA expression” value under setting [4] is given as 53%.
As to “829885 (antisense k[5mC]*k[5mC]*kG*d[5mC]*dT*dG*d[5mC]*dA*dG*dG*d[5mC]*dT*dG*kT*kA*k[5mC]) [compound 829885]”, the “% Inhibition” value under setting [2] came to 31%.
As for “799477 (antisense kG*kT*kT*d[5mC]*d[5mC]*dA*dT*dA*dG*dG*d[5mC]*dA*dG*k[5mC]*k[5mC]*kA) [compound 799477]”, the “% inhibition of SMAD7 mRNA expression” value under setting [5] worked out at 4%.
With “799922 (antisense kA*k[5mC]*kA*d[5mC]*dT*dA*dA*dT*dT*dA*dG*dT*dG*kA*k[5mC]*kT) [compound 799922]”, the “% Inhibition” value under setting [1] was found to be 15%.
As for “799475 (antisense kG*kT*kG*dA*dG*d[5mC]*dT*dG*dG*dG*d[5mC]*dT*dA*kT*kT*k[5mC]) [compound 799475]”, the “% Inhibition” value under setting [1] was 51%.
On the same count and under the same terms, then “800006 (k[5mC]*kA*kA*dG*dG*dA*dA*dT*dT*dT*dT*d[5mC]*d[5mC]*k[5mC]*k[5mC]*kT; antisense) [compound 800006]”, with 41%.
With “829969 (kG*kA*kA*d[5mC]*d[5mC]*d[5mC]*d[5mC]*d[5mC]*dA*dG*dG*dG*dA*kA*kT*kG; antisense) [compound 829969]”, the “% Inhibition” value under setting [2] worked out at 17%.
Still for that read-out and setting: the result for “829842 (k[5mC]*k[5mC]*kG*dA*dG*dG*d[5mC]*dA*dA*dA*dA*dG*d[5mC]*k[5mC]*kA*kT; antisense) [compound 829842]” reads 26%.
For “799037 (k[5mC]*k[5mC]*k[5mC]*d[5mC]*dA*dG*d[5mC]*d[5mC]*dG*d[5mC]*d[5mC]*dA*dG*k[5mC]*kT*kT; antisense) [compound 799037]”, the “% Inhibition” value under setting [5] came out at 9%.
With “799752 (antisense kT*kT*kA*dA*dA*dA*d[5mC]*dT*dG*dA*dG*d[5mC]*dT*kA*kA*kT) [compound 799752]”, the “% inhibition of SMAD7 mRNA expression” value under setting [4] is 0%.
With “799405 (antisense k[5mC]*kT*kG*dG*dG*dA*dA*d[5mC]*dA*dT*dT*dT*dA*k[5mC]*k[5mC]*k[5mC]) [compound 799405]”, under setting [5], the “% inhibition of SMAD7 mRNA expression” value is 28%.
As to “799766 (kA*kA*kA*d[5mC]*dA*dA*dA*dG*d[5mC]*dA*d[5mC]*dG*d[5mC]*kT*kA*kA; antisense) [compound 799766]”, the “% Inhibition” value under setting [3] is given as 35%.
The same measure, in the same setting: the result for “799292 (antisense kT*kG*kA*dT*dG*d[5mC]*dT*dG*dA*dT*dT*dA*dT*kT*kA*kA) [compound 799292]” reads 19%.
With “800080 (antisense kG*kG*kG*d[5mC]*dT*dA*d[5mC]*d[5mC]*dT*dT*dA*dA*d[5mC]*kA*kA*kA) [compound 800080]”, under setting [1], the “% Inhibition” value was 14%.
On to “790626 (kG*kA*kT*dA*dA*d[5mC]*dA*d[5mC]*d[5mC]*d[5mC]*dA*dT*dA*kG*kA*kA; antisense) [compound 790626]”, for which the “% inhibition of SMAD7 mRNA expression” value under setting [5] turned out to be 0%.
As for “798755 (kG*k[5mC]*k[5mC]*d[5mC]*dA*dG*d[5mC]*d[5mC]*dT*dG*d[5mC]*dA*dG*kT*k[5mC]*k[5mC]; antisense) [compound 798755]”, under setting [1], the “% Inhibition” value is reported as 46%.
Take “799819 (antisense k[5mC]*k[5mC]*k[5mC]*d[5mC]*dA*d[5mC]*dT*dG*dA*dG*d[5mC]*dA*dG*kG*kA*kG) [compound 799819]”: under setting [4], the “% inhibition of SMAD7 mRNA expression” value stood at 26%.
For the substance “799027 (kA*k[5mC]*k[5mC]*dG*d[5mC]*dT*dT*dG*dG*dG*dA*d[5mC]*dT*kG*k[5mC]*kA; antisense) [compound 799027]”, the “% inhibition of SMAD7 mRNA expression” value under setting [5] was 46%.
On to “798735 (antisense k[5mC]*k[5mC]*k[5mC]*d[5mC]*d[5mC]*dG*dG*d[5mC]*d[5mC]*dG*d[5mC]*dG*d[5mC]*k[5mC]*kG*kG) [compound 798735]”, for which the “% Inhibition” value under setting [1] turned out to be 0%.
For “799280 (antisense kA*kG*k[5mC]*dA*d[5mC]*d[5mC]*dT*dT*dG*dT*d[5mC]*dA*d[5mC]*k[5mC]*k[5mC]*kG) [compound 799280]”, the “% inhibition of SMAD7 mRNA expression” value under setting [4] is given as 44%.
“799064 (antisense kT*kA*kA*dT*dT*dG*dG*dT*dT*d[5mC]*dT*dG*dG*kT*kT*k[5mC]) [compound 799064]”: the “% inhibition of SMAD7 mRNA expression” value under setting [5] stood at 47%.
As to “790678 (kT*k[5mC]*k[5mC]*dT*dA*dT*dT*dG*dG*d[5mC]*dT*dG*dA*kT*k[5mC]*kT; antisense) [compound 790678]”, the “% Inhibition” value under setting [6] amounted to 46%.
With “799483 (antisense k[5mC]*kA*kA*dA*dG*dG*dA*dA*dA*dA*dG*d[5mC]*d[5mC]*kG*kG*kG) [compound 799483]”, the “% inhibition of SMAD7 mRNA expression” value under setting [5] came out at 35%.
With “798864 (kG*kT*k[5mC]*d[5mC]*dG*dG*dG*dT*dT*dG*dT*d[5mC]*d[5mC]*kA*kG*kT; antisense) [compound 798864]”, the “% Inhibition” value under setting [1] stood at 33%.
With “772738 (kA*k[5mC]*k[5mC]*dA*dG*dT*dT*dG*dG*dT*dT*dT*dG*kA*kG*kA; antisense) [compound 772738]”, the “% Inhibition” value under setting [6] is 16%.
For the substance “799786 (kA*k[5mC]*kA*dG*dA*dA*dG*d[5mC]*dT*dG*d[5mC]*d[5mC]*d[5mC]*k[5mC]*kT*kG; antisense) [compound 799786]”, the “% Inhibition” value under setting [3] is 0%.
On to “799119 (antisense kA*kG*k[5mC]*dA*dG*dA*dG*d[5mC]*dT*dT*dA*dA*d[5mC]*kA*k[5mC]*kA) [compound 799119]”, for which, under setting [5], the “% Inhibition” value worked out at 50%.
On to “799218 (k[5mC]*kA*kT*dT*dT*dG*dT*dT*dA*dT*dT*dT*dG*k[5mC]*kA*kT; antisense) [compound 799218]”, for which, under setting [5], the “% inhibition of SMAD7 mRNA expression” value came out at 0%.
Turning to “799097 (antisense kA*kA*kA*d[5mC]*d[5mC]*dT*dG*dA*dT*dG*dT*d[5mC]*dA*k[5mC]*k[5mC]*kA) [compound 799097]”, the “% Inhibition” value under setting [5] stood at 39%.
For “798887 (k[5mC]*kT*kG*dA*dT*d[5mC]*dT*dG*d[5mC]*dA*d[5mC]*dG*dG*kT*kA*kA; antisense) [compound 798887]”, under setting [1], the “% Inhibition” value came out at 26%.
For “799273 (antisense kA*kT*k[5mC]*dA*dT*dT*dA*d[5mC]*dT*d[5mC]*dG*dA*dG*kT*k[5mC]*kA) [compound 799273]”, the “% Inhibition” value under setting [3] is recorded as 41%.
In the case of “829898 (antisense kT*kG*kG*d[5mC]*dG*dG*dG*dT*dG*dT*dA*dG*d[5mC]*kA*k[5mC]*kT) [compound 829898]”, under setting [2], the “% Inhibition” value turned out to be 31%.
In the case of “799763 (antisense kT*kG*kT*d[5mC]*d[5mC]*dT*dA*dA*dA*dG*dA*d[5mC]*dG*kG*k[5mC]*kT) [compound 799763]”, under setting [3], the “% Inhibition” value is on record as 50%.

These data come from patent US10517889B2, “Modulators of SMAD7 expression” (Ionis Pharmaceuticals, Inc., priority 2017, dated 2019).
